Data: US20160046618A1, “Cyclopropyl Fused Thiazin-2-Amine Compounds as Beta-Secretase Inhibitors and Methods of Use” (AMGEN INC., priority 2014, published 2016)
Read-outs that look alike come from different tables or passages of the source.

Legend:
[1] = target: human recombinant BACE2 (Homo sapiens (Human), UniProt Q9Y5Z0); assay: In vitro enzymatic BACE2 FRET assay; assay type: biochemical; settings: read-out: IC50 IP (μM) BACE2 enzyme
Procedure, shortened: (§1)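 Ni-NTA-purified recombinant protease incubated with compound; reaction started with 50 nM FRET peptide substrate (fluorophore/quencher flanking the BACE cleavage site) and run 1 h. Stopped with Tris buffer raising pH to neutral; fluorescence read at ex 488/em 590 nm.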

[2] = system: Aβ40 in conditioned medium of cells stably expressing Amyloid Precursor Protein (APP); assay: In vitro BACE-1 cell-based assay (Aβ40 sandwich ELISA); settings: read-out: IC50 IP (μM) BACE1 cell
Procedure, shortened: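 APP-expressing cells treated 24 h at 37 °C with compound in 10-point dose response (top 100 μM or 10 μM, 0.1% DMSO final). Secreted Aβ40 in conditioned medium quantified by sandwich ELISA (pAb40 capture, biotinylated 6E10 detection, time-resolved europium fluorescence); IC50 from percent inhibition versus concentration.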

[3] = target: Recombinant Cat D (Homo sapiens (Human), UniProt P07339); assay: In vitro enzymatic Cathepsin D (Cat D) FRET assay; assay type: biochemical; settings: read-out: IC50 IP (μM) CatD
Sequence of Recombinant Cat D (P07339 65-412): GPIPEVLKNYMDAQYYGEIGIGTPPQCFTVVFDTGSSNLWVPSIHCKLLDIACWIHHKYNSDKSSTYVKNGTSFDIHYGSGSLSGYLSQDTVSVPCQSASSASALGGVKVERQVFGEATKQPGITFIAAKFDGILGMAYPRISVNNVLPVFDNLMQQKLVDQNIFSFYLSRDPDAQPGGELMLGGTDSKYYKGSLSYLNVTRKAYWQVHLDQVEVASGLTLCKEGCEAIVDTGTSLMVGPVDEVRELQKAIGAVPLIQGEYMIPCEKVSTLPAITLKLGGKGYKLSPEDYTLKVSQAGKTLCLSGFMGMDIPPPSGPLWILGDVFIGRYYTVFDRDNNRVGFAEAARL
Procedure, shortened: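 Human Cat D expressed in CHO cells was incubated for one hour in 0.05 M citrate pH 3.5, 5 mM CHAPS, 10% DMSO final, with 20 nM quenched FRET peptide substrate. Reactions were stopped with Tris buffer raising pH to neutrality. Cleavage was read as fluorescence at excitation 500 nm, emission 580 nm.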

[4] = system: Aβ 40 in rat brain; assay: In vivo inhibition of beta-secretase: Aβ40 reduction in rat brain; settings: 10 mpk, after 4 h
Procedure, shortened: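 Rats were dosed by oral gavage at up to 100 mg/kg in 2% HPMC, 1% Tween80, pH 2.2, with vehicle-only controls. Supernatant Aβ40 was measured by ECL sandwich ELISA with biotinylated-4G8 capture and C-terminal Fab40 detection.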

[5] = system: Aβ 40 in rat CSF; assay: In vivo inhibition of beta-secretase: Aβ40 reduction in rat CSF; settings: 10 mpk, after 4 h
Procedure, shortened: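 Male Sprague Dawley rats (200 g) dosed orally in 2% HPMC, 1% Tween80, pH 2.2, at 3, 10 or 30 mg/kg; CSF and brain taken 4 h later. Brain homogenate centrifuged at 355,000 g; Aβ40 measured by ECL sandwich ELISA (4G8 capture, Abeta40 C-terminal Fab detection), as % reduction versus vehicle controls.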

[6] = target: human recombinant BACE1 (Homo sapiens (Human), UniProt P56817); assay: In vitro enzymatic BACE1 FRET assay; assay type: biochemical; settings: read-out: IC50 IP (μM) BACE1 enzyme
Sequence of human recombinant BACE1 (P56817 46-501): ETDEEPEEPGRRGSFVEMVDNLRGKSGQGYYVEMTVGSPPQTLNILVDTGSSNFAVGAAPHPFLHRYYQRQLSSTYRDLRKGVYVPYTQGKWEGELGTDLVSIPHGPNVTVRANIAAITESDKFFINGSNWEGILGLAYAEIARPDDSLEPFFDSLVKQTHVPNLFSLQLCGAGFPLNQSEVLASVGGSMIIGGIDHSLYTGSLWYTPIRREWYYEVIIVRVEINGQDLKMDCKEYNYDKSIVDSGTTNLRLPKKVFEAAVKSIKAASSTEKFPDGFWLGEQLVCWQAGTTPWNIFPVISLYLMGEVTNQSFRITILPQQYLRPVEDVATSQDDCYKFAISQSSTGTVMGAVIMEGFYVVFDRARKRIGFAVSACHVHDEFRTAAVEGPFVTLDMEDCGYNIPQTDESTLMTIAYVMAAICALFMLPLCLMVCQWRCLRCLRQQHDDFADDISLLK
Procedure, shortened: as §1

Sequence of human recombinant BACE2 (Q9Y5Z0 63-518): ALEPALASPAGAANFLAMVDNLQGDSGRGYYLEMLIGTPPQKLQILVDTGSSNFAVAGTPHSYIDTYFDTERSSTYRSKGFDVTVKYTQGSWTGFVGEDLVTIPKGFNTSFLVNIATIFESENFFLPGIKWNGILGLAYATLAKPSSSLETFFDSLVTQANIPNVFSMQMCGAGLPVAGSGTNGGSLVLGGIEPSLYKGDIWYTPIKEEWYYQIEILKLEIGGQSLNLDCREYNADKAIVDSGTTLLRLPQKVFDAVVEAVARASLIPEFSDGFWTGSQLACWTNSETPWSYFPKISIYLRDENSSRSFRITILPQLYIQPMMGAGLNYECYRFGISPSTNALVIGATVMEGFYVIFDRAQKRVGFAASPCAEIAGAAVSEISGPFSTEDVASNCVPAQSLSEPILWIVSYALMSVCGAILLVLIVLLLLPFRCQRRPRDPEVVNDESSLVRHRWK

Row | IC50 ([1]; BACE2 FRET enzyme assay) [µM] | IC50 ([2]; BACE1 cell-based assay) [µM] | IC50 ([3]; Cathepsin D FRET enzyme assay) [µM] | IC50 ([6]; BACE1 FRET enzyme assay) [µM] | IC50 [1] [µM] | IC50 [2] [µM] | IC50 [3] [µM] | IC50 [6] [µM] | Compound | % Aβ 40 reduction in rat brain at 10 mpk [4] [%] | % Aβ 40 reduction in rat CSF at 10 mpk [5] [%]
1 | 0.27 | 0.0135 | > 400 | 0.00538 | – | – | – | – | NC1=N[C@](CF)(c2cc(Nc3nccc4nc(OCc5ncco5)cnc34)ccc2F)C2C[C@@H]2S1 (stereo in doubt) [Example 56, N-(3-((1S,5S,6S)-3-amino-5-(fluoromethyl)-2-thia-4-azabicyclo[4.1.0]hept-3-en-5-yl)-4-fluorophenyl)-2-(1,3-oxazol-2-ylmethoxy)pyrido[3,4-b]pyrazin-5-amine] | 32 | 50
2 | 0.00618 | 0.00899 | > 400 | 0.00548 | – | – | – | – | Cc1cc(C#N)cnc1C(=O)Nc1cc(F)c(F)c([C@@]2(CF)N=C(N)S[C@H]3C[C@H]32)c1 [Example 13, N-(3-((1S,5S,6S)-3-amino-5-(fluoromethyl)-2-thia-4-azabicyclo[4.1.0]hept-3-en-5-yl)-4,5-difluorophenyl)-5-cyano-3-methyl-2-pyridinecarboxamide] | 56 | 70
3 | 0.00837 | 0.0138 | 133 | 0.00426 | – | – | – | – | C[C@]1(c2cc(Nc3ncnc4cc(C#N)cnc34)cc(F)c2F)N=C(N)S[C@@]2(C(F)F)C[C@@H]12 [Example 95, 4-((3-((1S,5S,6S)-3-amino-1-(difluoromethyl)-5-methyl-2-thia-4-azabicyclo[4.1.0]hept-3-en-5-yl)-4,5-difluorophenyl)amino)pyrido[3,2-d]pyrimidine-7-carbonitrile] | 60 | 69
4 | – | – | – | – | 0.553 | 0.0127 | 859 | 0.0238 | COC[C@]12C[C@H]1[C@@](C)(c1cc(Nc3nccc4cc(OCc5cocn5)cnc34)cc(F)c1F)N=C(N)S2 [Example 728, N-(3-((1S,5S,6S)-3-amino-1-(methoxymethyl)-5-methyl-2-thia-4-azabicyclo[4.1.0]hept-3-en-5-yl)-4,5-difluorophenyl)-3-(1,3-oxazol-4-ylmethoxy)-1,7-naphthyridin-8-amine] | 23 | 31
5 | 0.00154 | 0.0326 | 1420 | 0.00855 | – | – | – | – | NC1=N[C@](CF)(c2cc(NC(=O)c3ccc(Cl)cn3)cc(F)c2F)[C@@H]2C[C@@H]2S1 [Example 5, N-(3-((1S,5S,6S)-3-amino-5-(fluoromethyl)-2-thia-4-azabicyclo[4.1.0]hept-3-en-5-yl)-4,5-difluorophenyl)-5-chloro-2-pyridinecarboxamide] | 19 | 43
6 | – | – | – | – | 0.0199 | 0.00049 | 1060 | 0.000437 | C#CCOc1cnc2c(Nc3cnc(F)c([C@@]4(C)N=C(N)S[C@@]5(CO)C[C@H]54)c3)nccc2n1 [Example 662, ((1S,5S,6S)-3-amino-5-(2-fluoro-5-((2-(2-propyn-1-yloxy)pyrido[3,4-b]pyrazin-5-yl)amino)-3-pyridinyl)-5-methyl-2-thia-4-azabicyclo[4.1.0]hept-3-en-1-yl)methanol] | 37 | 40
7 | – | – | – | – | 0.0544 | 0.00103 | 196 | 0.00115 | C#CCOc1cnc(C(=O)Nc2cnc(OC)c([C@@]3(C)N=C(N)S[C@@]4(CF)C[C@H]43)c2)cn1 [Example 612, N-(5-((1S,5S,6S)-3-amino-1-(fluoromethyl)-5-methyl-2-thia-4-azabicyclo[4.1.0]hept-3-en-5-yl)-6-methoxy-3-pyridinyl)-5-(2-propyn-1-yloxy)-2-pyrazinecarboxamide] | 82 | 84
8 | – | – | – | – | 0.0104 | 0.000608 | 16.6 | 0.0003 | C#CCOc1cnc(C(=O)Nc2ccc(F)c([C@@]3(C)N=C(N)S[C@@]4(C(=O)NC5CC5)C[C@H]43)c2)cn1 [Example 795, (1S,5S,6S)-3-amino-N-cyclopropyl-5-(2-fluoro-5-(((5-(2-propyn-1-yloxy)-2-pyrazinyl)carbonyl)amino)phenyl)-5-methyl-2-thia-4-azabicyclo[4.1.0]hept-3-en-1-carboxamide] | 70 | 76
9 | – | – | – | – | 0.0383 | 0.00111 | 127 | 0.000866 | C[C@]1(c2cc(Nc3ncnc4cc(OCc5ncco5)cnc34)cc(F)c2F)N=C(N)S[C@@]2(CF)C[C@H]21 [Example 808, N-(3-((1S,5S,6S)-3-amino-1-(fluoromethyl)-5-methyl-2-thia-4-azabicyclo[4.1.0]hept-3-en-5-yl)-4,5-difluorophenyl)-7-(1,3-oxazol-2-ylmethoxy)pyrido[3,2-d]pyrimidin-4-amine] | 26 | 44
10 | – | – | – | – | 0.0419 | 0.00182 | 735 | 0.000385 | C#C[C@H](C)Oc1cnc(C(=O)Nc2ccc(F)c([C@@]3(C)N=C(N)S[C@@]4(C(F)F)C[C@@H]34)c2)cn1 [Example 966, N-(3-((1S,5S,6S)-3-amino-1-(difluoromethyl)-5-methyl-2-thia-4-azabicyclo[4.1.0]hept-3-en-5-yl)-4-fluorophenyl)-5-(((1S)-1-methyl-2-propyn-1-yl)oxy)-2-pyrazinecarboxamide] | 68 | 67
11 | – | – | – | – | 0.207 | 0.00446 | 995 | 0.00496 | Cc1nc(COc2cnc3c(Nc4ccc(F)c([C@@]5(C)N=C(N)S[C@@]6(CF)C[C@H]65)c4)nccc3n2)no1 [Example 828, N-(3-((1S,5S,6S)-3-amino-1-(fluoromethyl)-5-methyl-2-thia-4-azabicyclo[4.1.0]hept-3-en-5-yl)-4-fluorophenyl)-2-((5-methyl-1,2,4-oxadiazol-3-yl)methoxy)pyrido[3,4-b]pyrazin-5-amine] | 10 | 24
12 | – | – | – | – | 0.0384 | 0.00428 | 1390 | 0.00114 | C#CCOc1cnc2c(Nc3cc(F)c(F)c([C@@]4(C)N=C(N)S[C@@]5(COC)C[C@H]54)c3)nccc2n1 [Example 627, N-(3-((1S,5S,6S)-3-amino-1-(methoxymethyl)-5-methyl-2-thia-4-azabicyclo[4.1.0]hept-3-en-5-yl)-4,5-difluorophenyl)-2-(2-propyn-1-yloxy)pyrido[3,4-b]pyrazin-5-amine] | 50 | 59
13 | – | – | – | – | 0.0184 | 0.0035 | 183 | 0.00186 | C[C@]1(c2cc(Nc3nccc4nc(OCc5ncco5)cnc34)ccc2F)N=C(N)S[C@]2(CO)[C@H]1C2(F)F [Example 705, ((1S,5S,6R)-3-amino-7,7-difluoro-5-(2-fluoro-5-((2-(1,3-oxazol-2-ylmethoxy)pyrido[3,4-b]pyrazin-5-yl)amino)phenyl)-5-methyl-2-thia-4-azabicyclo[4.1.0]hept-3-en-1-yl)methanol] | 1 | 28
14 | – | – | – | – | 0.0235 | 0.00345 | 554 | 0.00133 | C#CCOc1cnc2c(Nc3cnc(F)c([C@@]4(C)N=C(N)S[C@@]5([C@@H](O)C(F)(F)F)C[C@H]54)c3)nccc2n1 [Example 660, (1S)-1-((1S,5S,6S)-3-amino-5-(2-fluoro-5-((2-(2-propyn-1-yloxy)pyrido[3,4-b]pyrazin-5-yl)amino)-3-pyridinyl)-5-methyl-2-thia-4-azabicyclo[4.1.0]hept-3-en-1-yl)-2,2,2-trifluoroethanol] | 26 | 38
15 | 0.00169 | 0.00383 | > 400 | 0.00203 | – | – | – | – | COC[C@]12C[C@H]1[C@@](C)(c1cc(Nc3nccc4cc(C#N)cnc34)cc(F)c1F)N=C(N)S2 [Example 33, 8-((3-((1S,5S,6S)-3-amino-1-(methoxymethyl)-5-methyl-2-thia-4-azabicyclo[4.1.0]hept-3-en-5-yl)-4,5-difluorophenyl)amino)-1,7-naphthyridine-3-carbonitrile] | 53 | 65
